Results from publication PMC10892019, “Molecular Characterization of Plant Volatile Compound Interactions with Cnaphalocrocis medinalis Odorant-Binding Proteins” (Plants, 2024).
Read-outs that look alike come from different tables or passages of the source.

What was measured:
CmedOBP15 = CmedOBP15 (Cnaphalocrocis medinalis, UniProt A0A0U3C6L3); assay: Fluorescence competitive binding assay (1-NPN) with CmedOBP15
Experimental: (§1) The method for fluorescence competition binding was the same as that described by Zeng et al. (2018). The fluorescent probe N-phenyl-1-naphthylamine (1-NPN) (Sangon Biotech, Shanghai, China) and phenylacetaldehyde, benzyl acetate, 1-heptanol, and hexanal (Aladdin, Shanghai, China) were diluted to 100 mM stocks in chromatographic-grade methanol and stored at −20 °C. Working solutions of 1 mM 1-NPN and each odorant were made up in methanol. Each CmedOBP solution was diluted in 1 mM Tris-HCl buffer to a final concentration of 2 μM.
(§2) The RF5301PC fluorescence spectrophotometer (Shimadzu, Japan) was operated at an excitation wavelength of 337 nm and an emission wavelength of 405 nm (with excitation and emission slits of 5 nm and 10 nm, respectively). For each protein solution, 2 mL of diluted protein was added to the quartz cuvette, then 4 μL aliquots of 1-NPN solution were added at 2 min intervals to bring the final concentration of the probe to 2 μM. After the fluorescence intensity was stable, the maximum fluorescence value was recorded. The 1 mM volatile samples dissolved in methanol were then added to a final concentration of 20 μM. After 2 min, when the fluorescence value no longer fluctuated, the maximum fluorescence value was recorded. Each odor sample was tested in three technical replicates.
(§3) The binding ability of each protein to each odorant was determined by plotting the fluorescence intensity against the ligand concentration. Trend lines were linearized with the Scatchard method, then used to calculate the half-maximal inhibition concentration (IC50) of the ligand. The competition constant was calculated from the IC50 value as follows: Ki = [IC50]/(1 + [1-NPN]/K1-NPN) where 1-NPN is the concentration of free 1-NPN, and K1-NPN is the dissociation constant of the CmedOBP/[1-NPN] complex. The dissociation constant (Ki) was inversely correlated with the binding force between the protein and the odorant. At Ki > 50 μmol/L, the protein was considered to have no binding force with the volatile; at 20 μmol/L < Ki < 50 μmol/L, the protein was considered to have a weak binding force with the volatile; and at 0 μmol/L < Ki < 20 μmol/L, the protein was considered to have a strong binding force with the analyzed volatile.

CmedOBP6 = CmedOBP6 (Cnaphalocrocis medinalis, UniProt A0A0U3C2E7); assay: Fluorescence competitive binding assay (1-NPN) with CmedOBP6
Chain of CmedOBP6 (A0A0U3C2E7 entry or part of it): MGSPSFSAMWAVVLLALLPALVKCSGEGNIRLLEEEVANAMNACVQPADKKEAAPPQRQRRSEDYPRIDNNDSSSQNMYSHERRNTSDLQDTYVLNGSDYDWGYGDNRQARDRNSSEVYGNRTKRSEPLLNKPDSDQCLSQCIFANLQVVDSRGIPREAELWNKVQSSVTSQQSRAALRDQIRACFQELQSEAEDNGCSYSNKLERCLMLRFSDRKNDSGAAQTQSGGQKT
Experimental: as §1, §2, §3

CmedGOBP1 = CmedGOBP1 (Cnaphalocrocis medinalis, UniProt H9XFD0); assay: Fluorescence competitive binding assay (1-NPN) with CmedGOBP1
Chain of CmedGOBP1 (H9XFD0 entry or part of it): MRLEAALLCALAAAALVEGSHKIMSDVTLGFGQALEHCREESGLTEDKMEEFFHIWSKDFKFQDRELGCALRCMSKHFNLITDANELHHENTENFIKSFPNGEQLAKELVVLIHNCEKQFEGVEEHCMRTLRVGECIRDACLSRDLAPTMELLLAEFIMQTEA
Experimental: as §1, §2, §3

CmedOBP1 = CmedOBP1 (Cnaphalocrocis medinalis, UniProt H9XFD2); assay: Fluorescence competitive binding assay (1-NPN) with CmedOBP1
Chain of CmedOBP1 (H9XFD2 entry or part of it): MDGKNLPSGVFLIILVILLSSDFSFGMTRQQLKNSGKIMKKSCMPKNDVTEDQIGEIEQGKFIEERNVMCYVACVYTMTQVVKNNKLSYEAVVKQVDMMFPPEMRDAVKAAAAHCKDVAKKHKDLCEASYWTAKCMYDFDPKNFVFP
Experimental: as §1, §2, §3

CmedPBP2 = CmedPBP2 (Cnaphalocrocis medinalis, UniProt M4YHW5); assay: Fluorescence competitive binding assay (1-NPN) with CmedPBP2
Chain of CmedPBP2 (M4YHW5 entry or part of it): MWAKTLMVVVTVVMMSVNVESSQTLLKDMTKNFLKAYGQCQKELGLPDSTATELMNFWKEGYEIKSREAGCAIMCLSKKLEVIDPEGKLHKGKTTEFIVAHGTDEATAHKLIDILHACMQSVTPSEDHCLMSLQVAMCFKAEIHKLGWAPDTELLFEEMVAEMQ
Experimental: as §1, §2, §3

CmedGOBP2 = CmedGOBP2 (Cnaphalocrocis medinalis, UniProt H9XFD1); assay: Fluorescence competitive binding assay (1-NPN) with CmedGOBP2
Chain of CmedGOBP2 (H9XFD1 entry or part of it): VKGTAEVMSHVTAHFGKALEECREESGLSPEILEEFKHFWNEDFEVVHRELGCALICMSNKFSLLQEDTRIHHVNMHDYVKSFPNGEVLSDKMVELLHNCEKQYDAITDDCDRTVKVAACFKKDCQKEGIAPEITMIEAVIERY
Experimental: as §1, §2, §3

CmedOBP26 = CmedOBP26 (Cnaphalocrocis medinalis, UniProt A0A1P8SKA7); assay: Fluorescence competitive binding assay (1-NPN) with CmedOBP26
Chain of CmedOBP26 (A0A1P8SKA7 entry or part of it): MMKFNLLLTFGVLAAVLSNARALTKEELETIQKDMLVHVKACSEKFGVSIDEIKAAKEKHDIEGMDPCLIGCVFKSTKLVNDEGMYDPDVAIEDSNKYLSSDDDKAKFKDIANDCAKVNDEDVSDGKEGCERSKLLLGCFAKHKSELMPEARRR
Experimental: as §1, §2, §3

SaveOBP9 = target: SaveOBP9; set-up: method as in PMID 33172024; settings: SaveOBP9, strong binding force; cited from earlier work
[1] = CmedOBP15 2 μM, 1-NPN probe 2 μM, calculated from IC50, read-out: Ki
[2] = CmedOBP15 2 μM, 1-NPN probe 2 μM, read-out: IC50
[3] = CmedOBP6 2 μM, 1-NPN probe 2 μM, calculated from IC50, read-out: Ki
[4] = CmedOBP6 2 μM, 1-NPN probe 2 μM, read-out: IC50
[5] = CmedGOBP1 2 μM, 1-NPN probe 2 μM, calculated from IC50, read-out: Ki
[6] = CmedGOBP1 2 μM, 1-NPN probe 2 μM, read-out: IC50
[7] = CmedOBP1 2 μM, 1-NPN probe 2 μM, calculated from IC50, read-out: Ki
[8] = CmedOBP1 2 μM, 1-NPN probe 2 μM, read-out: IC50
[9] = CmedPBP2 2 μM, 1-NPN probe 2 μM, calculated from IC50, read-out: Ki
[10] = CmedPBP2 2 μM, 1-NPN probe 2 μM, read-out: IC50
[11] = CmedGOBP2 2 μM, 1-NPN probe 2 μM, calculated from IC50, read-out: Ki
[12] = CmedGOBP2 2 μM, 1-NPN probe 2 μM, read-out: IC50
[13] = CmedOBP26 2 μM, 1-NPN probe 2 μM, calculated from IC50, read-out: Ki
[14] = CmedOBP26 2 μM, 1-NPN probe 2 μM, read-out: IC50
[15] = Ki, CmedOBP15 2 μM, 1-NPN probe 2 μM, calculated from IC50
[16] = Ki, CmedOBP1 2 μM, 1-NPN probe 2 μM, calculated from IC50

Chain of CmedOBP15 (A0A0U3C6L3 entry or part of it): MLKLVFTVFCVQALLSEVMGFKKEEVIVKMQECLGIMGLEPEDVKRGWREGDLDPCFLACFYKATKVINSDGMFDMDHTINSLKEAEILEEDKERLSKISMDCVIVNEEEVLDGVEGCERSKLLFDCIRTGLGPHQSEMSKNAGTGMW

With `CC(=O)OCc1ccccc1` [Benzyl Acetate, benzyl acetate] the Ki (CmedOBP15; [1]) was 13.6 µM, the IC50 (CmedOBP15; [2]) was 34.4 µM and the Ki (CmedOBP15; CmedOBP15, read-out: Ki value) was < 20 µM. For the same compound, the Ki (CmedOBP6; [3]) was > 50 µM, the IC50 (CmedOBP6; [4]) was 558 µM and the Ki (CmedGOBP1; [5]) was > 50 µM. The IC50 (CmedGOBP1; [6]) was 223 µM, the Ki (CmedOBP1; [7]) was 31.5 µM and the IC50 (CmedOBP1; [8]) was 179 µM. For the same compound, the Ki (CmedPBP2; [9]) was > 50 µM, the IC50 (CmedPBP2; [10]) was 235 µM and the Ki (CmedGOBP2; [11]) was > 50 µM. The IC50 (CmedGOBP2; [12]) was 454 µM, the Ki (CmedOBP26; [13]) was > 50 µM and the IC50 (CmedOBP26; [14]) was 96.1 µM.
In the case of `CCCCCCCCCC=O` [decanal], the Ki (SaveOBP9) is given as < 10 µM.
For `O=CCc1ccccc1` [Phenylacetaldehyde, phenylacetaldehyde], the IC50 (CmedOBP15) was 44.3 µM, the Ki (CmedOBP15; Ki value, CmedOBP15) was < 20 µM and the Ki (CmedOBP15; [15]) was 17.5 µM. For the same compound, the IC50 (CmedOBP6) was 357 µM, the Ki (CmedOBP6) was > 50 µM and the IC50 (CmedGOBP1) was 162 µM. For the same compound, the Ki (CmedGOBP1) was > 50 µM, the IC50 (CmedOBP1) was 77.5 µM and the Ki (CmedOBP1; Ki value, CmedOBP1) was < 20 µM. For the same compound, the Ki (CmedOBP1; [16]) was 13.7 µM, the IC50 (CmedPBP2) was 85.8 µM and the Ki (CmedPBP2) was > 50 µM. The IC50 (CmedGOBP2) was 123 µM, the Ki (CmedGOBP2) was > 50 µM and the IC50 (CmedOBP26) was 458 µM. For the same compound, the Ki (CmedOBP26) was > 50 µM.
For `CCCCCCCO` [1-Heptanol, 1-heptanol], the Ki (CmedOBP15; [1]) was > 50 µM, the IC50 (CmedOBP15; [2]) was 290 µM and the Ki (CmedOBP6; [3]) was > 50 µM. The IC50 (CmedOBP6; [4]) was 624 µM, the Ki (CmedGOBP1; [5]) was > 50 µM and the IC50 (CmedGOBP1; [6]) was 219 µM. For the same compound, the Ki (CmedOBP1; [7]) was 12 µM, the IC50 (CmedOBP1; [8]) was 68.1 µM and the Ki (CmedOBP1; CmedOBP1, read-out: Ki value) was < 20 µM. For the same compound, the Ki (CmedPBP2; [9]) was > 50 µM, the IC50 (CmedPBP2; [10]) was 224 µM and the Ki (CmedGOBP2; [11]) was > 50 µM. For the same compound, the IC50 (CmedGOBP2; [12]) was 99.7 µM, the Ki (CmedOBP26; [13]) was 31.9 µM and the IC50 (CmedOBP26; [14]) was 52.3 µM. It also gave a Ki (CmedOBP26; CmedOBP26, read-out: Ki value) of 20 to 50 µM.
In the case of `CCCCCC=O` [Hexanal, hexanal], the IC50 (CmedOBP15) is reported as 441 µM, the Ki (CmedOBP15; [15]) is reported as > 50 µM and the IC50 (CmedOBP6) is reported as 383 µM. The Ki (CmedOBP6) was > 50 µM, the IC50 (CmedGOBP1) was 249 µM and the Ki (CmedGOBP1) was > 50 µM. For the same compound, the IC50 (CmedOBP1) was 99.2 µM, the Ki (CmedOBP1; Ki value, CmedOBP1) was < 20 µM and the Ki (CmedOBP1; [16]) was 17.5 µM. For the same compound, the IC50 (CmedPBP2) was 155 µM, the Ki (CmedPBP2) was > 50 µM and the IC50 (CmedGOBP2) was 622 µM. For the same compound, the Ki (CmedGOBP2) was > 50 µM, the IC50 (CmedOBP26) was 200 µM and the Ki (CmedOBP26) was > 50 µM.
For `CCCCCCCCCCCCCCCC` [hexadecane], the Ki (SaveOBP9) is given as < 10 µM.
For `CCCCCCCC=O` [octanal], the Ki (SaveOBP9) is listed as < 10 µM.
For `CCCCCCCCCCCCCC` [tetradecane], the Ki (SaveOBP9) is listed as < 10 µM.
